Tests used:
[1] = test system: mouse wound model (6 mm punch biopsy wound held open by a silicone splint ring); assay: In vivo mouse wound model: re-epithelialization (H&E) after Flx+ delivery from wearable bioelectronic bandage
Source text: (§1) FIG. 6 illustrates testing of the efficacy of the bioelectronic bandage in vivo on a mouse wound model. We created a 6 mm punch biopsy wound held open by a silicone splint ring to minimize wound contraction (FIG. 6A). Wound contraction is a major wound healing process in mice but not humans. It confounds the histological analysis of the wound reponse to therapy, particularly re-epithelialization [12b, 13]. A gas-permeable, transparent adhesive dressing, Tegaderm™, fixes the bioelectronic bandage to the mouse (FIG. 6A, right) so that the mouse can move around its cage without interference (FIG. 6B). This is possible because the lightweight bandage (2.5 g) represents less than 10% of the mouse weight. For this test, we programmed the bandage to deliver Flx^+ for three days for six hours per day (FIG. 6C).
(§2) We utilized a machine-learning algorithm reported to analyze images of wounds and evaluate their condition and healing progression (FIG. 6D). The algorithm automatically marked the wound area and analyzed the wound size (FIG. 6E). […] To further investigate healing, the wounds were fully excised at the end of the experiment, fixed, and stained with hematoxylin and eosin (H&E) to assess wound re-epithelialization (FIG. 6G-H). […] This variability allowed us to qualitatively correlate the dose of Flx^+ and wound healing as measured by the percentage of re-epithelization (FIG. 6J, right). […]

[2] = test system: mouse wound model (6 mm punch biopsy wound); assay: Wound size analysis from wound images by machine-learning algorithm; assay type: in vivo; conditions: fluoxetine-treated wounds, similar trend to control
Source text: as §1, §2

[3] = test system: M1 and M2 macrophages in the wound; assay: Macrophage analysis of the wound (immunohistochemistry, M1 iNOS / M2 CD206 / F4/80); assay type: in vivo, mouse
Source text: All cells (stained by DAPI, shown in blue), M1 (stained by iNOS, shown in green), M2 (stained by CD206, shown in red), and overall macrophages (stained by F4/80, shown in gray) were imaged and presented, FIG. 7b is an overlay of M1 and M2 staining, showing the distribution and ratio of macrophage subtypes, FIG. 7c is a box plot showing statistics of the M1/M2 ratio, which was 1.80+/−0.62 in the control group and 1.31+/−0.46 for the fluoxetine-treated group. […] The blue dot represents the M1/M2 ratio from the control group, and the red dot represents the fluoxetine-treated group. The dashed lines indicate the projected wound age, while the solid line represents the trend plotted from the data in the reference..
After analyzing the promising re-epithelization data, we delved deeper into another crucial indicator of wound healing: the M1/M2 macrophage ratio (FIG. 7). Macrophages play a pivotal role in the immune response and are crucially involved in the healing and regeneration of wounds. Although macrophages are phenotypically heterogeneous over a continuum, a simplified classification based on their polarized functions during the different stages of wound repair defines the M1 subtype that carries out pro-inflammatory activities and the M2 subtype that is anti-inflammatory and promotes tissue repair. […] Meanwhile, the number of M2-like macrophages increased in the center of the fluoxetine-treated wound, as depicted in FIG. 7A.

CNCCC(Oc1ccc(C(F)(F)F)cc1)c1ccccc1 (stereo not shown) [fluoxetine]
increase in re-epithelialization compared to control ([1]; Flx+ delivered from the bioelectronic bandage, three days, six hours per day, H&E of excised wounds, P<0.05): 39.9%
reepithelization in mouse 2 (>300 nMol per day Flx+) versus mouse 15 (10× smaller dose) ([1]; qualitative dose comparison, bioelectronic bandage): much faster
wound size trend over time [2]: slight increase in size at day 1, followed by a decrease on subsequent days
decrease in M1/M2 ratio compared to control ([3]; day 3, n=13 mice, P<0.05): 27.2%
M1/M2 ratio ([3]; fluoxetine-treated group, day 3, n=13 mice): 1.31+/−0.46
number of M2-like macrophages in the center of the wound ([3]; fluoxetine-treated wound, day 3): increased
M1 macrophage infiltration of the center of the wound ([3]; three days after injury, control wound significantly infiltrated): no change

From US20240366930A1, “WEARABLE BIOELECTRONICS FOR PROGRAMMABLE DELIVERY OF THERAPY” (The Regents of the University of California, priority 2023, published 2024)
